± gives the standard deviation of the averaged measurements.
Tests used:
Test in all cases: level (log10 ratio to DMSO vehicle control); higher = higher biomarker level / cell amount than vehicle control
[1] = compound: C=CC(=O)OCC(F)(F)C(F)(F)C(F)(F)C(F)(F)COC(=O)C=C [1H,1H,6H,6H-Perfluorohexane-1,6-diol diacrylate]; settings: 6700 nM; in DMSO
Method: (§1)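 BioMAP Diversity Plus panel of 12 human primary cell co-culture systems (3C, 4H, LPS, SAg, BT, BF4T, BE3C, CASM3C, HDF3CGF, KF3CT, MyoF, Mphg). Compounds were added 1 h before stimulation and left for 24 h (MyoF 48 h; BT 72 h for soluble read-outs or 6 d for IgG). Biomarkers were read by ELISA, cytotoxicity by SRB, PBMC viability and proliferation by Alamar Blue. Each well value was divided by the mean of 8 DMSO control wells on the same plate and log10 transformed; duplicate blinded samples were tested at 4 concentrations.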

[2] = compound: C=C(C)C(=O)OCC(F)(F)C(F)(F)C(F)(F)F [2,2,3,3,4,4,4-Heptafluorobutyl methacrylate]; settings: in DMSO
Method: as §1

[3] = compound: Cc1ccc(S(=O)(=O)OCC(F)(F)C(F)(F)C(F)(F)C(F)(F)C(F)(F)C(F)F)cc1 [1H,1H,7H-Perfluoroheptyl 4-methylbenzenesulfonate]; settings: in DMSO
Method: as §1

Test System	level (log10) [1]	level (log10) ([2]; 6700 nM)	level (log10) ([2]; 20000 nM)	level (log10) ([2]; 60000 nM)	level (log10) ([3]; 6700 nM)	level (log10) ([3]; 20000 nM)	level (log10) ([3]; 60000 nM)
LPS:sTNF-alpha	0.0235 ± 0.029	0.005 ± 0.0057	0.018 ± 0.052	0.0415 ± 0.0092	0.003 ± 0.0057	-0.006 ± 0.016	-0.0035 ± 0.0064
3C:CXCL8/IL-8	0.017 ± 0.024	0.0395 ± 0.042	0.039 ± 0.0014	0.051 ± 0.04	-0.0075 ± 0.0021	-0.0245 ± 0.0078	-0.061 ± 0.017
SAg:CXCL9/MIG	-0.009 ± 0.018	-0.004 ± 0.03	0.002 ± 0.011	0.009 ± 0.013	0.001 ± 0.0042	-0.028	-0.0075 ± 0.0064
BE3C:CXCL8/IL-8	-0.095 ± 0.013	0.016 ± 0.042	-0.008 ± 0.031	0.013 ± 0.058	-0.0345 ± 0.042	-0.12 ± 0.059	-0.126 ± 0.028
BE3C:HLA-DR	-0.048 ± 0.0071	-0.0005 ± 0.015	0.006 ± 0.016	0.003 ± 0.035	-0.0155 ± 0.005	-0.0195 ± 0.012	-0.025 ± 0.0014
SAg:PBMC Cytotoxicity	-0.066 ± 0.038	-0.0105 ± 0.037	0.015 ± 0.011	0.0075 ± 0.044	0.0275 ± 0.0092	0.0285 ± 0.0092	0.017 ± 0.02
BF4T:MMP-3	0.085 ± 0.038	-0.009 ± 0.03	-0.011 ± 0.0085	0.006 ± 0.0085	-0.006 ± 0.0014	-0.031 ± 0.0014	-0.018 ± 0.0085
BT:sTNF-alpha	-0.698 ± 0.042	0.0155 ± 0.043	0.023 ± 0.058	0.0675 ± 0.0092	0.102 ± 0.067	0.0055 ± 0.084	0.084 ± 0.069
4H:CCL26/Eotaxin-3	-0.0435 ± 0.005	0.005 ± 0.02	0.0045 ± 0.0078	-0.0035 ± 0.022	0.007 ± 0.0057	-0.0015 ± 0.013	-0.057 ± 0.052
LPS:M-CSF	-0.021 ± 0.021	0.0125 ± 0.042	0.007 ± 0.035	0.0165 ± 0.023	-0.019 ± 0.033	-0.026 ± 0.0057	0.008 ± 0.03
3C:CD87/uPAR	0.0105 ± 0.029	-0.01 ± 0.025	-0.0125 ± 0.036	0.012 ± 0.0085	-0.018 ± 0.0014	0.004 ± 0.017	-0.027 ± 0.024
BF4T:uPA	-0.02 ± 0.035	-0.01	-0.017 ± 0.017	-0.007 ± 0.0085	-0.0185 ± 0.00071	-0.01 ± 0.0042	-0.0165 ± 0.0064
4H:VEGFR2	-0.0605 ± 0.00071	-0.0065 ± 0.03	0.01	0.0085 ± 0.0021	0.005 ± 0.018	0.017 ± 0.011	0.01
SAg:CXCL8/IL-8	-0.102 ± 0.011	-0.003 ± 0.061	-0.002 ± 0.075	0.006 ± 0.02	0.005 ± 0.0014	0.0025 ± 0.0064	0.0265 ± 0.033
SAg:CD62E/E-Selectin	-0.15 ± 0.021	0.0045 ± 0.039	-0.0225 ± 0.011	0.0015 ± 0.019	0.021 ± 0.0028	0.007 ± 0.018	-0.0115 ± 0.028
BT:sIL-2	-0.461 ± 0.18	0.0115 ± 0.035	0.026 ± 0.082	-0.0115 ± 0.042	0.0615 ± 0.0021	0.0305 ± 0.042	-0.0025 ± 0.14
LPS:sPGE2	-0.0195 ± 0.0064	0.05 ± 0.042	-0.009 ± 0.024	0.076 ± 0.014	-0.0185 ± 0.03	-0.023 ± 0.024	0.003 ± 0.058

— the supplement of paper PMC10331698
